# Test system: C6 cells
# Assay: Rate of dead cells after 5-ALA PDT in erythrocyte solution, C6 cells, Example 3
# Assay type: cell-based, rat
# Description: C6 cells or human leukemia cell line TL-Oml cells were cultured in 2.5% FBS/F-12K medium (C6 cells) or 10% FBS/RPMI1640 (TL-Oml cells) supplemented with 5-ALA to a final concentration of 0.125 to 0.5 mM in a 5% CO2 incubator at 37° C. for 4 hours. After the culture, the cells were removed with a 0.25% trypsin-EDTA solution, and the collected cells were adjusted to 2×10^7 cells/mL with an erythrocyte solution (a solution in which erythrocytes and PBS were mixed at a ratio of 45:55). The cell suspension thus prepared was injected into a Tygon tube (inner diameter: 0.79 mm), wrapped around a light irradiator, and irradiated with light having a wavelength of 630 nm so that the irradiation energy density was 0.5 to 500 J/cm^2. After the irradiation, an ammonium chloride solution was added to the cell suspension to hemolyze the erythrocytes. Cells before the PDT treatment, after the PDT treatment, and after 24-hour culture were stained with the FITC Annexin V Apoptosis Detection Kit I and the rate of dead cells was analyzed with a flow cytometer.
# [1] = 5-ALA 0.125 mM, 20 J/cm^2, 24 hours after irradiation
# [2] = 5-ALA 0.125 mM, 20 J/cm^2, immediately after irradiation
# [3] = 5-ALA 0.125 mM, 50 J/cm^2, 24 hours after irradiation
# [4] = 5-ALA 0.125 mM, 50 J/cm^2, immediately after irradiation
# [5] = 5-ALA 0.125 mM, 100 J/cm^2, 24 hours after irradiation
# [6] = 5-ALA 0.125 mM, 100 J/cm^2, immediately after irradiation
# [7] = 5-ALA 0.125 mM, 400 J/cm^2, 24 hours after irradiation
# [8] = 5-ALA 0.125 mM, 400 J/cm^2, immediately after irradiation
# [9] = 5-ALA 0.125 mM, 500 J/cm^2, 24 hours after irradiation
# [10] = 5-ALA 0.125 mM, 500 J/cm^2, immediately after irradiation
# [11] = 5-ALA 0.25 mM, 2.5 J/cm^2, 24 hours after irradiation
# [12] = 5-ALA 0.25 mM, 2.5 J/cm^2, immediately after irradiation
# [13] = 5-ALA 0.25 mM, 5 J/cm^2, 24 hours after irradiation
# [14] = 5-ALA 0.25 mM, 5 J/cm^2, immediately after irradiation
# [15] = 5-ALA 0.25 mM, 250 J/cm^2, 24 hours after irradiation
# [16] = 5-ALA 0.25 mM, 250 J/cm^2, immediately after irradiation
# [17] = 5-ALA 0.25 mM, 300 J/cm^2, 24 hours after irradiation
# [18] = 5-ALA 0.25 mM, 300 J/cm^2, immediately after irradiation
# [19] = 5-ALA 0.25 mM, 350 J/cm^2, 24 hours after irradiation
# [20] = 5-ALA 0.25 mM, 350 J/cm^2, immediately after irradiation
# [21] = 5-ALA 0.5 mM, 0.5 J/cm^2, 24 hours after irradiation
# [22] = 5-ALA 0.5 mM, 0.5 J/cm^2, immediately after irradiation
# [23] = 5-ALA 0.5 mM, 1 J/cm^2, 24 hours after irradiation
# [24] = 5-ALA 0.5 mM, 1 J/cm^2, immediately after irradiation
# [25] = 5-ALA 0.5 mM, 2.5 J/cm^2, 24 hours after irradiation
# [26] = 5-ALA 0.5 mM, 2.5 J/cm^2, immediately after irradiation
# [27] = 5-ALA 0.5 mM, 100 J/cm^2, 24 hours after irradiation
# [28] = 5-ALA 0.5 mM, 100 J/cm^2, immediately after irradiation
# [29] = 5-ALA 0.5 mM, 350 J/cm^2, 24 hours after irradiation
# [30] = 5-ALA 0.5 mM, 350 J/cm^2, immediately after irradiation
# [31] = 5-ALA 0.5 mM, 400 J/cm^2, 24 hours after irradiation
# [32] = 5-ALA 0.5 mM, 400 J/cm^2, immediately after irradiation
# [33] = 5-ALA 0.5 mM, 500 J/cm^2, 24 hours after irradiation
# [34] = 5-ALA 0.5 mM, 500 J/cm^2, immediately after irradiation
smiles,measurement,setting,value
"NCC(=O)CCC(=O)O [5-ALA, 5-aminolevulinic acid]",Annexin V+/PI+ (%),[1],2%
same,Annexin V+/PI− (%),[1],3%
same,Annexin V-/PI− (%),[1],95%
same,Annexin V+/PI+ (%),[2],2%
same,Annexin V+/PI− (%),[2],1%
same,Annexin V−/PI− (%),[2],97%
same,Annexin V+/PI+ (%),[3],3%
same,Annexin V+/PI− (%),[3],3%
same,Annexin V-/PI− (%),[3],94%
same,Annexin V+/PI+ (%),[4],3%
same,Annexin V+/PI− (%),[4],1%
same,Annexin V−/PI− (%),[4],95%
same,Annexin V+/PI+ (%),[5],4%
same,Annexin V+/PI− (%),[5],4%
same,Annexin V-/PI− (%),[5],92%
same,Annexin V+/PI+ (%),[6],4%
same,Annexin V+/PI− (%),[6],1%
same,Annexin V−/PI− (%),[6],95%
same,Annexin V+/PI+ (%),[7],10%
same,Annexin V+/PI− (%),[7],5%
same,Annexin V+/PI+ (%),[8],6%
same,Annexin V+/PI− (%),[8],1%
same,Annexin V−/PI− (%),[8],93%
same,Annexin V+/PI+ (%),[9],27%
same,Annexin V+/PI− (%),[9],9%
same,Annexin V+/PI+ (%),[10],17%
same,Annexin V+/PI− (%),[10],0%
same,Annexin V−/PI− (%),[10],82%
same,Annexin V+/PI+ (%),[11],2%
same,Annexin V+/PI− (%),[11],5%
same,Annexin V−/PI− (%),[11],93%
same,Annexin V+/PI+ (%),[12],2%
same,Annexin V+/PI− (%),[12],1%
same,Annexin V−/PI− (%),[12],97%
same,Annexin V+/PI+ (%),[13],5%
same,Annexin V+/PI− (%),[13],8%
same,Annexin V−/PI− (%),[13],88%
same,Annexin V+/PI+ (%),[14],3%
same,Annexin V+/PI− (%),[14],1%
same,Annexin V−/PI− (%),[14],96%
same,Annexin V+/PI+ (%),[15],59%
same,Annexin V+/PI− (%),[15],8%
same,Annexin V−/PI− (%),[15],23%
same,Annexin V+/PI+ (%),[16],70%
same,Annexin V+/PI− (%),[16],0%
same,Annexin V−/PI− (%),[16],28%
same,Annexin V+/PI+ (%),[17],86%
same,Annexin V+/PI− (%),[17],4%
same,Annexin V−/PI− (%),[17],10%
same,Annexin V+/PI+ (%),[18],83%
same,Annexin V+/PI− (%),[18],0%
same,Annexin V−/PI− (%),[18],14%
same,Annexin V+/PI+ (%),[19],96%
same,Annexin V+/PI− (%),[19],1%
same,Annexin V−/PI− (%),[19],2%
same,Annexin V+/PI+ (%),[20],91%
same,Annexin V+/PI− (%),[20],0%
same,Annexin V−/PI− (%),[20],6%
same,Annexin V+/PI+ (%),[21],2%
same,Annexin V+/PI− (%),[21],3%
same,Annexin V−/PI− (%),[21],95%
same,Annexin V+/PI+ (%),[22],3%
same,Annexin V+/PI− (%),[22],2%
same,Annexin V−/PI− (%),[22],95%
same,Annexin V+/PI+ (%),[23],2%
same,Annexin V+/PI− (%),[23],3%
same,Annexin V−/PI− (%),[23],95%
same,Annexin V+/PI+ (%),[24],3%
same,Annexin V+/PI− (%),[24],1%
same,Annexin V−/PI− (%),[24],96%
same,Annexin V+/PI+ (%),[25],4%
same,Annexin V+/PI− (%),[25],4%
same,Annexin V−/PI− (%),[25],92%
same,Annexin V+/PI+ (%),[26],4%
same,Annexin V+/PI− (%),[26],1%
same,Annexin V−/PI− (%),[26],94%
same,Annexin V+/PI+ (%),[27],86%
same,Annexin V+/PI− (%),[27],6%
same,Annexin V−/PI− (%),[27],8%
same,Annexin V+/PI+ (%),[28],81%
same,Annexin V+/PI− (%),[28],2%
same,Annexin V−/PI− (%),[28],15%
same,Annexin V+/PI+ (%),[29],92%
same,Annexin V+/PI− (%),[29],4%
same,Annexin V−/PI− (%),[29],3%
same,Annexin V+/PI+ (%),[30],90%
same,Annexin V+/PI− (%),[30],0%
same,Annexin V−/PI− (%),[30],8%
same,Annexin V+/PI+ (%),[31],96%
same,Annexin V+/PI− (%),[31],2%
same,Annexin V−/PI− (%),[31],1%
same,Annexin V+/PI+ (%),[32],94%
same,Annexin V+/PI− (%),[32],0%
same,Annexin V−/PI− (%),[32],5%
same,Annexin V+/PI+ (%),[33],98%
same,Annexin V+/PI− (%),[33],2%
same,Annexin V−/PI− (%),[33],1%
same,Annexin V+/PI+ (%),[34],97%
same,Annexin V+/PI− (%),[34],0%
same,Annexin V−/PI− (%),[34],2%

# Source: US20240108725A1, “METHOD FOR TREATING CANCER AND SYSTEM FOR SAME” (OTSUKA MEDICAL DEVICES CO., LTD, priority 2020, published 2024)
